Experimental data taken from US6706663B2, “Herbicidal 3-heterocyclic substituted benzisothiazole and benzisoxazole compounds” (Wyeth, priority 2000, dated 2004).

Experiments:
[1] = system: ECHCG (Echinochloa crus-galli); test: Preemergence herbicidal evaluation; format: in vivo, (L.) Beau; conditions: preemergence, rated 4-5 weeks after treatment
Procedure, shortened: (§1)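 Steps: mix seeds with potting soil; plant on ~1 inch soil per cup; spray compound in aqueous acetone; hold on greenhouse benches with routine watering; rate 0–9 visually against control at 4–5 weeks.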

[2] = system: ECHCG (Echinochloa crus-galli); test: Postemergence herbicidal evaluation; format: in vivo, (L.) Beau; conditions: postemergence
Procedure, shortened: (§2)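 Visual 0–9 injury scores versus control plants, covering stand, vigour, malformation, size, chlorosis and general appearance, taken four to five weeks post-spray and averaged over replicate tests. Plants were sprayed at roughly two weeks old and held on greenhouse benches.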

[3] = system: TRZAWR (Wheat, Winter, cv Riband); test: Postemergence herbicidal evaluation; format: in vivo, Triticum aestivum; conditions: postemergence
Procedure, shortened: as §2

[4] = system: CHEAL (Chenopodium album); test: Postemergence herbicidal evaluation; format: in vivo, L.; conditions: postemergence
Procedure, shortened: as §2

[5] = system: AMBEL (Ambrosia artemisifolia); test: Postemergence herbicidal evaluation; format: in vivo, L.; conditions: postemergence
Procedure, shortened: as §2

[6] = system: CASOB (Cassia obtusifolia); test: Postemergence herbicidal evaluation; format: in vivo, L.; conditions: postemergence
Procedure, shortened: as §2

ZEAMX (Corn, Field) [7] = test: Postemergence herbicidal evaluation; format: in vivo, Zea mays, L.; conditions: postemergence
Procedure, shortened: as §2

[8] = system: ECHORC (Echinochloa oryzoides); test: Flooded paddy, preemergence weed control; format: in vivo, Echinochloa oryzoides (Ard.) Fritsch.; conditions: rated 3-4 weeks after treatment, 0-9 rating scale
Procedure, shortened: (§3)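 Seeds or propagules were planted in the top 0.5 cm of silt loam soil and kept flooded 1.5–3 cm above the surface throughout, then held in the greenhouse. Injury was rated visually on a 0–9 scale against untreated controls, covering stand, vigor, malformation, size and chlorosis.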

[9] = system: MOOVA (Monochoria vaginalis); test: Flooded paddy, preemergence weed control; format: in vivo, Presl.; conditions: rated 3-4 weeks after treatment, 0-9 rating scale
Procedure, shortened: as §3

GLXMA (Soybean) = test: Preemergence herbicidal evaluation; format: in vivo, Glycine max, (L.) Merr.; conditions: preemergence, rated 4-5 weeks after treatment
CYPIR (Cyperus iria) = test: Flooded paddy, preemergence weed control; format: in vivo; conditions: rated 3-4 weeks after treatment, 0-9 rating scale
Procedure, shortened: as §3

[10] = system: AMBEL (Ambrosia artemisifolia); test: Preemergence herbicidal evaluation; format: in vivo, L.; conditions: preemergence, rated 4-5 weeks after treatment
Procedure, shortened: as §1

ZEAMX (Corn, Field) [11] = test: Preemergence herbicidal evaluation; format: in vivo, Zea mays, L.; conditions: preemergence, rated 4-5 weeks after treatment
GALAP (Galium aparine) [12] = test: Postemergence herbicidal evaluation; format: in vivo; conditions: postemergence
Procedure, shortened: as §2

ORYSAT (Rice, Tebonnet) [13] = test: Flooded paddy, post-transplant rice tolerance; format: in vivo, Oryza sativa, (L.) Tebonnet; conditions: flooded paddy, post-transplant rice, rated 3-4 weeks after treatment, 0-9 rating scale
Procedure, shortened: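 Visual 0-9 rating against a control, covering stand, vigor, malformation, size, chlorosis and overall appearance. Treatment was applied after transplanting paired ten-day-old seedlings into flooded silt loam, with water kept 1.5 to 3 cm deep on greenhouse benches.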

[14] = system: GLXMAW (Soybean, Williams); test: Postemergence herbicidal evaluation; format: in vivo, Glycine max, (L.) Merr. cv Williams; conditions: postemergence
Procedure, shortened: as §2

ORYSAT (Rice, Tebonnet) [15] = test: Postemergence herbicidal evaluation; format: in vivo, Oryza sativa, (L.) Tebonnet; conditions: postemergence
Procedure, shortened: as §2

[16] = system: IPOHE (Ipomoea hederacea); test: Postemergence herbicidal evaluation; format: in vivo, (L.) Jacq.; conditions: postemergence
Procedure, shortened: as §2

[17] = system: SAGPY (Sagittaria pygmaea); test: Flooded paddy, preemergence weed control; format: in vivo, L.; conditions: rated 3-4 weeks after treatment, 0-9 rating scale
Procedure, shortened: as §3

GALAP (Galium aparine) [18] = test: Preemergence herbicidal evaluation; format: in vivo; conditions: preemergence, rated 4-5 weeks after treatment
Procedure, shortened: as §1

[19] = system: IPOHE (Ipomoea hederacea); test: Preemergence herbicidal evaluation; format: in vivo, (L.) Jacq.; conditions: preemergence, rated 4-5 weeks after treatment
[20] = system: ABUTH (Abutilon theophrasti); test: Postemergence herbicidal evaluation; format: in vivo, Medic.; conditions: postemergence
Procedure, shortened: as §2

[21] = system: ABUTH (Abutilon theophrasti); test: Preemergence herbicidal evaluation; format: in vivo, Medic.; conditions: preemergence, rated 4-5 weeks after treatment

Question: Which results are given for “[2-[5-[3,6-dihydro-3-methyl-2,6-dioxo-4-(trifluoromethyl)-1(2H)-pyrimidinyl]-1,2-benzisothiazol-3-1]-1,3-dioxolan-4-yl]methyl thiocyanate [Compound 89]”?
Answer: Preemergence herbicidal rating ECHCG ([1]; rate 0.0620 kg/ha): 0.0; Preemergence herbicidal rating ECHCG ([1]; rate 0.1250 kg/ha): 3.0; Preemergence herbicidal rating ECHCG ([1]; rate 0.2500 kg/ha): 7.0; ECHCG herbicidal rating ([2]; rate 0.0080 kg/ha): 0.0; ECHCG herbicidal rating ([2]; rate 0.0320 kg/ha): 0.0; ECHCG herbicidal rating ([2]; rate 0.0620 kg/ha): 3.0; ECHCG herbicidal rating ([2]; rate 0.1250 kg/ha): 4.0; TRZAWR herbicidal rating ([3]; rate 0.0080 kg/ha): 1.5; TRZAWR herbicidal rating ([3]; rate 0.0320 kg/ha): 3.0; TRZAWR herbicidal rating ([3]; rate 0.0620 kg/ha): 3.0; TRZAWR herbicidal rating ([3]; rate 0.1250 kg/ha): 4.0; CHEAL herbicidal rating ([4]; rate 0.0080 kg/ha): 8.0; CHEAL herbicidal rating ([4]; rate 0.0320 kg/ha): 9.0; CHEAL herbicidal rating ([4]; rate 0.0620 kg/ha): 9.0; CHEAL herbicidal rating ([4]; rate 0.1250 kg/ha): 9.0; AMBEL herbicidal rating ([5]; rate 0.0080 kg/ha): 7.0; AMBEL herbicidal rating ([5]; rate 0.0320 kg/ha): 9.0; AMBEL herbicidal rating ([5]; rate 0.0620 kg/ha): 9.0; AMBEL herbicidal rating ([5]; rate 0.1250 kg/ha): 9.0; CASOB herbicidal rating ([6]; rate 0.0080 kg/ha): 9.0; CASOB herbicidal rating ([6]; rate 0.0320 kg/ha): 9.0; CASOB herbicidal rating ([6]; rate 0.0620 kg/ha): 9.0; CASOB herbicidal rating ([6]; rate 0.1250 kg/ha): 9.0; ZEAMX herbicidal rating (ZEAMX (Corn, Field) [7]; rate 0.0080 kg/ha): 3.0; ZEAMX herbicidal rating (ZEAMX (Corn, Field) [7]; rate 0.0320 kg/ha): 3.5; ZEAMX herbicidal rating (ZEAMX (Corn, Field) [7]; rate 0.0620 kg/ha): 3.5; ZEAMX herbicidal rating (ZEAMX (Corn, Field) [7]; rate 0.1250 kg/ha): 3.5; ECHORC herbicidal rating ([8]; rate 0.0320 kg/ha): 3.0; ECHORC herbicidal rating ([8]; rate 0.1250 kg/ha): 5.0; MOOVA herbicidal rating ([9]; rate 0.0320 kg/ha): 0.0; MOOVA herbicidal rating ([9]; rate 0.1250 kg/ha): 8.0; Preemergence herbicidal rating GLXMA (GLXMA (Soybean); rate 0.0620 kg/ha): 3.0; Preemergence herbicidal rating GLXMA (GLXMA (Soybean); rate 0.1250 kg/ha): 6.0; Preemergence herbicidal rating GLXMA (GLXMA (Soybean); rate 0.2500 kg/ha): 9.0; CYPIR herbicidal rating (CYPIR (Cyperus iria); rate 0.0320 kg/ha): 0.0; CYPIR herbicidal rating (CYPIR (Cyperus iria); rate 0.1250 kg/ha): 8.0; Preemergence herbicidal rating AMBEL ([10]; rate 0.0620 kg/ha): 4.0; Preemergence herbicidal rating AMBEL ([10]; rate 0.1250 kg/ha): 9.0; Preemergence herbicidal rating AMBEL ([10]; rate 0.2500 kg/ha): 9.0; Preemergence herbicidal rating ZEAMX (ZEAMX (Corn, Field) [11]; rate 0.0620 kg/ha): 0.0; Preemergence herbicidal rating ZEAMX (ZEAMX (Corn, Field) [11]; rate 0.1250 kg/ha): 3.0; Preemergence herbicidal rating ZEAMX (ZEAMX (Corn, Field) [11]; rate 0.2500 kg/ha): 4.0; GALAP herbicidal rating (GALAP (Galium aparine) [12]; rate 0.0080 kg/ha): 2.0; GALAP herbicidal rating (GALAP (Galium aparine) [12]; rate 0.0320 kg/ha): 3.0; GALAP herbicidal rating (GALAP (Galium aparine) [12]; rate 0.0620 kg/ha): 7.0; GALAP herbicidal rating (GALAP (Galium aparine) [12]; rate 0.1250 kg/ha): 9.0; ORYSAT herbicidal rating (transplanted rice tolerance) (ORYSAT (Rice, Tebonnet) [13]; rate 0.0320 kg/ha): 0.0; ORYSAT herbicidal rating (transplanted rice tolerance) (ORYSAT (Rice, Tebonnet) [13]; rate 0.1250 kg/ha): 6.0; GLXMAW herbicidal rating ([14]; rate 0.0080 kg/ha): 7.0; GLXMAW herbicidal rating ([14]; rate 0.0320 kg/ha): 7.5; GLXMAW herbicidal rating ([14]; rate 0.0620 kg/ha): 8.0; GLXMAW herbicidal rating ([14]; rate 0.1250 kg/ha): 9.0; ORYSAT herbicidal rating (ORYSAT (Rice, Tebonnet) [15]; rate 0.0080 kg/ha): 1.5; ORYSAT herbicidal rating (ORYSAT (Rice, Tebonnet) [15]; rate 0.0320 kg/ha): 3.0; ORYSAT herbicidal rating (ORYSAT (Rice, Tebonnet) [15]; rate 0.0620 kg/ha): 3.0; ORYSAT herbicidal rating (ORYSAT (Rice, Tebonnet) [15]; rate 0.1250 kg/ha): 4.0; IPOHE herbicidal rating ([16]; rate 0.0080 kg/ha): 7.0; IPOHE herbicidal rating ([16]; rate 0.0320 kg/ha): 9.0; IPOHE herbicidal rating ([16]; rate 0.0620 kg/ha): 9.0; IPOHE herbicidal rating ([16]; rate 0.1250 kg/ha): 9.0; SAGPY herbicidal rating ([17]; rate 0.0320 kg/ha): 0.0; SAGPY herbicidal rating ([17]; rate 0.1250 kg/ha): 9.0; Preemergence herbicidal rating GALAP (GALAP (Galium aparine) [18]; rate 0.0620 kg/ha): 3.0; Preemergence herbicidal rating GALAP (GALAP (Galium aparine) [18]; rate 0.1250 kg/ha): 6.0; Preemergence herbicidal rating GALAP (GALAP (Galium aparine) [18]; rate 0.2500 kg/ha): 7.0; Preemergence herbicidal rating IPOHE ([19]; rate 0.0620 kg/ha): 7.0; Preemergence herbicidal rating IPOHE ([19]; rate 0.1250 kg/ha): 8.0; Preemergence herbicidal rating IPOHE ([19]; rate 0.2500 kg/ha): 9.0; ABUTH herbicidal rating ([20]; rate 0.0080 kg/ha): 8.0; ABUTH herbicidal rating ([20]; rate 0.0320 kg/ha): 9.0; ABUTH herbicidal rating ([20]; rate 0.0620 kg/ha): 9.0; ABUTH herbicidal rating ([20]; rate 0.1250 kg/ha): 9.0; Preemergence herbicidal rating ABUTH ([21]; rate 0.0620 kg/ha): 9.0; Preemergence herbicidal rating ABUTH ([21]; rate 0.1250 kg/ha): 9.0; Preemergence herbicidal rating ABUTH ([21]; rate 0.2500 kg/ha): 9.0
